The text below walks through data of patent US20060167046A1, “Histamine h3 receptor antagonists, preparation and therapeutic uses” (Eli Lilly and Company Patent Division, priority 2002, published 2006).

The target of this assay is T1, H3R membranes (H3R8-expressing HEK293 cell line) (Homo sapiens, UniProt Q9Y5N1).
T1 construct: expressed in transfected cells
As to the kind of experiment: [35S]GTPγS binding assay, H3R membranes in the presence of agonist. It is filed as biochemical. Particulars: inhibition of [35S]GTPγS binding to H3R membranes in presence of agonist R(-)alpha methylhistamine; room temperature, pH 7.4. The protocol:
Membranes isolated as described in (Preparation of Histamine Receptor Subtype Membranes) were used in a [^35S]GTPχS functional assay. Binding of [^35S]GTPχS to membranes indicates agonist activity. Compounds of the invention of Formula I were tested for their ability to inhibit binding in the presence of agonists. Alternately, the same transfected cell lines were used for a cAMP assay wherein H3R agonists inhibited forskolin-activated synthesis of cAMP. Compounds of Formula I were tested for their ability to permit forskolin-stimulated cAMP synthesis in the presence of agonist. cDNA for the human histamine 3 receptor was cloned and expressed as described in (A. Preparation H1R membranes), above. Transfected cells were selected using G418 ([…]), grown, and tested for histamine binding by the SPA described above. For total binding, cells were assayed in a SPA reaction described above containing 50 mM Tris-HCL (assay buffer), pH 7.6, 1 mg wheat germ agglutinin SPA beads (Amersham Pharmacia Biotech, #RPNQ0001), and 1 nM (^3H)-n-alpha-methylhistamine (NEN, NET1027) (total volume per well=200 μl). Thioperimide was added to determine non-specific binding. Several clones were selected as positive for binding, and a single clone (H3R8) was used to prepare membranes for binding studies described above. […] Plates were counted in Wallac Trilux 1450 Microbeta scintillation counter for 1 minute. […]
(GTPγS resists hydrolysis and so accumulates on activated G proteins.)

T1 sequence (Q9Y5N1 whole entry): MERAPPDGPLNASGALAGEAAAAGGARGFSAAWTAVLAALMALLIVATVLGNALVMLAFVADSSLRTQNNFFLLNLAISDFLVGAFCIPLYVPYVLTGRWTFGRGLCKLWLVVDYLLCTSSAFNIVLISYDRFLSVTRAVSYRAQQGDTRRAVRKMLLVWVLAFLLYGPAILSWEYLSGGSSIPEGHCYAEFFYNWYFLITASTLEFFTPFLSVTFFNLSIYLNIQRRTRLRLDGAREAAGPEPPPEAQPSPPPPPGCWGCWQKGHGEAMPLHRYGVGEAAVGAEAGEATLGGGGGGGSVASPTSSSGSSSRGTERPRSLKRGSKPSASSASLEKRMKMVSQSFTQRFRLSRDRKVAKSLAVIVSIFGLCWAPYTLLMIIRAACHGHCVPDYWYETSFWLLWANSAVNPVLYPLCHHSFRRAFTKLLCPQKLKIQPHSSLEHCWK

As a reminder, the Ki is the dissociation constant of the complex between target and ligand, obtained from inhibition or displacement. For the compound `O=C(c1cccs1)N1CCCc2ccc(OCCCN3CCCCC3)cc21` [Example 6, [7-(3-Piperidin-1-yl-propoxy)-3,4-dihydro-2H-quinolin-1-yl]-thiophen-2-yl-methanone], the Ki worked out at 12.6 nM. Consider `CN1CCC[C@H]1CN1CCc2cc(OCCCN3CCCCC3)ccc21` [Example 60, (S)-1-(1-Methyl-pyrrolidin-2-ylmethyl)-5-(3-piperidin-1-yl-propoxy)-2,3-dihydro-1H-indole], for which the Ki stood at 0.5 nM.
